According to paper PMC8286840, “Identifying SARS-CoV-2 antiviral compounds by screening for small molecule inhibitors of Nsp3 papain-like protease” (Biochemical Journal, 2021):
Structures can show the parent of a compound that is named as a salt. Where two headings read alike, the source gives them in different places. Where no end group is shown, it is not given here.

Tests used:
[1] = biological target: T1, SARS-CoV-2 PLpro (nsp3 1564–1878) (Severe acute respiratory syndrome coronavirus 2, UniProt P0DTD1); assay: biochemical; design: FRET-quenched peptide (Pro3) cleavage by PLpro, 10 min pre-incubation, slope over 20 min, normalised to no-compound control; settings: low concentration screen, read-out: % of control remaining
[2] = biological target: T1, SARS-CoV-2 PLpro (nsp3 1564–1878); assay: biochemical; design: FRET-quenched peptide (Pro3) cleavage by PLpro, 10 min pre-incubation, slope over 20 min, normalised to no-compound control; settings: high concentration screen, read-out: % of control remaining

C[N+](C)(C)CC(O)CC(=O)[O-] (racemic) showed a remaining activity at 1.25 µM ([1]; Well no.=3402) of 88.4% and a remaining activity at 3.75 µM ([2]; Well no.=3402) of 86.6%.
In the case of Cc1c(N)nc([C@H](CC(N)=O)NC[C@H](N)C(N)=O)nc1C(=O)N[C@H](C(=O)N[C@H](C)[C@@H](O)[C@H](C)C(=O)N[C@H](C(=O)NCCc1nc(-c2nc(C(=O)NCCC[S+](C)C)cs2)cs1)[C@@H](C)O)[C@@H](O[C@@H]1O[C@@H](CO)[C@@H](O)[C@H](O)[C@@H]1O[C@H]1O[C@H](CO)[C@@H](O)[C@H](OC(N)=O)[C@@H]1O)c1cnc[nH]1 [Bleomycin sulfate], the remaining activity at 1.25 µM ([1]; Well no.=3558) is reported as 107% and the remaining activity at 3.75 µM ([2]; Well no.=3558) is reported as 107%.
With CCOC(=O)[C@H](CCc1ccccc1)N[C@@H](C)C(=O)N1Cc2ccccc2C[C@H]1C(=O)O [Quinapril] the remaining activity at 1.25 µM ([1]; Well no.=2189) was 98.1% and the remaining activity at 3.75 µM ([2]; Well no.=2189) was 96.3%.
Work on Cc1cc(C(=O)NOCCO)c(Nc2ccc(I)cc2F)n(C)c1=O [AZD8330] yielded a remaining activity at 1.25 µM ([1]; Well no.=5104) of 107% and a remaining activity at 3.75 µM ([2]; Well no.=5104) of 106%.
In the case of COC(=O)C1=C(C#N)NC(C)=C(C(=O)OC(C)C)C1c1cccc([N+](=O)[O-])c1 (stereo not shown) [5-isopropyl 3-methyl 2-cyano-6-methyl-4-(3-nitrophenyl)-1,4-dihydro-3,5-pyridinedicarboxylate], the remaining activity at 1.25 µM ([1]; Well no.=6056) is reported as 94% and the remaining activity at 3.75 µM ([2]; Well no.=6056) is reported as 89.3%.
CC1CNCCN1S(=O)(=O)c1cccc2cnccc12 (stereo not shown) [H-7 dihydrochloride] was tested, and the remaining activity at 1.25 µM ([1]; Well no.=570) was 95.5% and the remaining activity at 3.75 µM ([2]; Well no.=570) was 95.4%.
Molecule CC(C)C[C@H]1C(=O)O[C@H](Cc2ccc(N3CCOCC3)cc2)C(=O)N(C)[C@@H](CC(C)C)C(=O)O[C@H](C)C(=O)N(C)[C@@H](CC(C)C)C(=O)O[C@H](Cc2ccc(N3CCOCC3)cc2)C(=O)N(C)[C@@H](CC(C)C)C(=O)O[C@H](C)C(=O)N1C [Emodepside] has a remaining activity at 1.25 µM ([1]; Well no.=8506) of 100% and a remaining activity at 3.75 µM ([2]; Well no.=8506) of 100%.
Cc1scc2c1N(C(=O)CN1CCN(C)CC1)c1ccccc1NC2=O [Telenzepine dihydrochloride] was tested, and the remaining activity at 1.25 µM ([1]; Well no.=1186) was 95.7% and the remaining activity at 3.75 µM ([2]; Well no.=1186) was 97.7%.
With CCCNC(=O)[C@H]1O[C@@H]1C(=O)N[C@H](C(=O)N1CCC[C@H]1C(=O)OC)[C@@H](C)CC [CA-074 methyl ester] the remaining activity at 1.25 µM ([1]; Well no.=8166) was 105% and the remaining activity at 3.75 µM ([2]; Well no.=8166) was 100%.
CCCSc1nc(N[C@@H]2C[C@H]2c2ccc(F)c(F)c2)c2nnn([C@@H]3C[C@H](OCCO)[C@@H](O)[C@H]3O)c2n1 [Ticagrelor] gave a remaining activity at 1.25 µM ([1]; Well no.=4738) of 105%, a remaining activity at 1.25 µM ([1]; Well no.=6329) of 101% and a remaining activity at 3.75 µM ([2]; Well no.=4738) of 108%. For the same molecule, the remaining activity at 3.75 µM ([2]; Well no.=6329) was 102%.
For C[C@H](CCCC(C)(C)O)[C@H]1CC[C@H]2[C@@H]3CC=C4C[C@@H](O)CC[C@]4(C)[C@H]3CC[C@]12C [25-Hydroxycholesterol], the remaining activity at 1.25 µM ([1]; Well no.=6353) was 101% and the remaining activity at 3.75 µM ([2]; Well no.=6353) was 101%.
Work on COc1ccc2c(c1)c(CC(=O)O)c(C)n2Cc1ccc(Cl)cc1 [1-(4-Chlorobenzyl)-5-methoxy-2-methylindole-3-acetic acid] yielded a remaining activity at 1.25 µM ([1]; Well no.=379) of 99.8% and a remaining activity at 3.75 µM ([2]; Well no.=379) of 99.4%.
Work on Cc1cc(-n2c(=O)[nH]c(=O)n(C)c2=O)ccc1Oc1ccc(SC(F)(F)F)cc1 [Toltrazuril] yielded a remaining activity at 1.25 µM ([1]; Well no.=4692) of 110% and a remaining activity at 3.75 µM ([2]; Well no.=4692) of 102%.
Work on NC(=O)CC[C@H](N)C(=O)O [L-Glutamine] yielded a remaining activity at 1.25 µM ([1]; Well no.=715) of 96.1%, a remaining activity at 1.25 µM ([1]; Well no.=6899) of 93.9% and a remaining activity at 1.25 µM ([1]; Well no.=7743) of 102%. It also gave a remaining activity at 3.75 µM ([2]; Well no.=715) of 93.2%, a remaining activity at 3.75 µM ([2]; Well no.=6899) of 92.3% and a remaining activity at 3.75 µM ([2]; Well no.=7743) of 104%.
CC1=C2[C@H]3OC(=O)[C@@H](C)[C@@H]3CC[C@@]2(C)C=CC1=O [Santonin] gave a remaining activity at 1.25 µM ([1]; Well no.=3717) of 90% and a remaining activity at 3.75 µM ([2]; Well no.=3717) of 95.8%.
OC(Cn1cncn1)(Cn1cncn1)c1ccc(F)cc1F [Fluconazole] gave a remaining activity at 1.25 µM ([1]; Well no.=2132) of 99.9% and a remaining activity at 3.75 µM ([2]; Well no.=2132) of 100%.
In the case of Nc1nc(Nc2ccc(S(N)(=O)=O)cc2)nn1C(=O)c1c(F)cccc1F [JNJ-7706621], the remaining activity at 1.25 µM ([1]; Well no.=8260) is reported as 91.9% and the remaining activity at 3.75 µM ([2]; Well no.=8260) is reported as 92%.
For CCCCC/C=C\C/C=C\C/C=C\C/C=C\CCCC(=O)O[C@@H](CO)COC(=O)CCCCCCCCCCCCCCCCC [1-Stearoyl-2-arachidonoyl-glycerol], the remaining activity at 1.25 µM ([1]; Well no.=4482) was 95.9% and the remaining activity at 3.75 µM ([2]; Well no.=4482) was 96.2%.
Cc1nc(=O)c2cc(CN(C)c3ccc(C(=O)N[C@@H](CCC(=O)O)C(=O)O)s3)ccc2[nH]1 [Raltitrexed (Tomudex)] showed a remaining activity at 1.25 µM ([1]; Well no.=4723) of 115% and a remaining activity at 3.75 µM ([2]; Well no.=4723) of 106%.
Molecule COC(=O)CCSCc1ccc(-c2onc(C)c2NC(=O)OC(C)c2ccccc2Cl)cc1 (stereo not shown) [Ki16198] has a remaining activity at 1.25 µM ([1]; Well no.=5219) of 89.4% and a remaining activity at 3.75 µM ([2]; Well no.=5219) of 96.1%.
CC(C)c1cc(C(C)C)c(-c2csc(N(CCN(C)C)Cc3cccnc3)n2)c(C(C)C)c1 [SR 27417] gave a remaining activity at 1.25 µM ([1]; Well no.=5599) of 100% and a remaining activity at 3.75 µM ([2]; Well no.=5599) of 100%.
Molecule CNCCc1ccccn1 [Betahistine 2HCl] has a remaining activity at 1.25 µM ([1]; Well no.=5026) of 97.2% and a remaining activity at 3.75 µM ([2]; Well no.=5026) of 98.9%.
CC(=O)OCC(=O)[C@@]1(O)[C@H](C)C[C@H]2[C@@H]3CCC4=CC(=O)C=C[C@]4(C)[C@@]3(F)[C@@H](O)C[C@@]21C [Dexamethasone acetate] was tested, and the remaining activity at 1.25 µM ([1]; Well no.=5357) was 99.3% and the remaining activity at 3.75 µM ([2]; Well no.=5357) was 98%.
CN1CCN(c2nc3cc(C(F)(F)F)ccc3n3cccc23)CC1 [CGS-12066A maleate] gave a remaining activity at 1.25 µM ([1]; Well no.=437) of 102% and a remaining activity at 3.75 µM ([2]; Well no.=437) of 101%.
RPPGFSPFR [Bradykinin] was tested, and the remaining activity at 1.25 µM ([1]; Well no.=8439) was 98.7% and the remaining activity at 3.75 µM ([2]; Well no.=8439) was 95.2%.
For OC[C@H]1O[C@@H](n2cnc3c(NCc4ccc(O)cc4)ncnc32)[C@H](O)[C@@H]1O [N6-(4-Hydroxybenzyl)adenosine], the remaining activity at 1.25 µM ([1]; Well no.=7233) was 106%, the remaining activity at 1.25 µM ([1]; Well no.=7954) was 101% and the remaining activity at 3.75 µM ([2]; Well no.=7233) was 101%. The remaining activity at 3.75 µM ([2]; Well no.=7954) was 97.1%.
Work on CCC(NC(C)C)C(O)c1ccc(O)c(O)c1 (stereo not shown) [Isotharine mesylate] yielded a remaining activity at 1.25 µM ([1]; Well no.=915) of 104% and a remaining activity at 3.75 µM ([2]; Well no.=915) of 104%.
In the case of COc1cc(OC)cc(-c2cc3cnc(N)nc3nc2NC(=O)NC(C)(C)C)c1 [PD-166866], the remaining activity at 1.25 µM ([1]; Well no.=5912) is reported as 96.4% and the remaining activity at 3.75 µM ([2]; Well no.=5912) is reported as 96.7%.
Work on CCCCC1CCC(c2nc(-c3ccncc3)no2)CC1 (stereo not shown) [PSN-375963] yielded a remaining activity at 1.25 µM ([1]; Well no.=5398) of 106% and a remaining activity at 3.75 µM ([2]; Well no.=5398) of 106%.
Cc1oncc1C(=O)Nc1ccc(C(F)(F)F)cc1 [Leflunomide] showed a remaining activity at 1.25 µM ([1]; Well no.=787) of 104%, a remaining activity at 1.25 µM ([1]; Well no.=2268) of 96.5% and a remaining activity at 3.75 µM ([2]; Well no.=787) of 105%. The remaining activity at 3.75 µM ([2]; Well no.=2268) was 104%.
